The target of this assay is Serum paraoxonase/arylesterase 1 (Homo sapiens, UniProt P27169). The assay can be described thus: PON Activity Assay. The procedure:
PON activities were measured in the presence of different drug concentrations. Control activity was assumed to be 100% in the absence of inhibitor. Experiments of all compounds were tested in triplicate at each concentration used and Activity%-[Drug] graphs were drawn for each drug. Determination of Ki values was performed by using three different inhibitor concentrations. In these experiments, paraoxone was used as substrate at five different concentrations (0.15, 0.3, 0.45, 0.6, and 0.75 mM).

Ki data for five molecules are collected here from BindingDB's records for doi:10.3109/14756366.2012.681653 (Atatürk University, 2013).

The Ki is a dissociation constant, usually derived from enzyme kinetics or from competition with a known ligand. A low value points to higher affinity.

Counter-ions that a name gives are not always drawn.

Serum paraoxonase/arylesterase 1, sequence (P27169 whole entry): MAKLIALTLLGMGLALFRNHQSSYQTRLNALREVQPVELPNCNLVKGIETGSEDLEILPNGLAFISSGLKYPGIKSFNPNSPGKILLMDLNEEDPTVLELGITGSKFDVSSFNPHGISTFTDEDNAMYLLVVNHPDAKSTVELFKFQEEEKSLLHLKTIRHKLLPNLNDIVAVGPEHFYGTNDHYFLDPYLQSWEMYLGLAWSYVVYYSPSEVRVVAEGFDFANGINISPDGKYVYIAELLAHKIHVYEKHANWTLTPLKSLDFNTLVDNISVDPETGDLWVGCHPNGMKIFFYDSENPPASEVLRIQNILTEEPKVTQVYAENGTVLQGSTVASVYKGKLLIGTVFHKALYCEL

For `CCC[C@@H]1C[C@@H](C(=O)N[C@@H]([C@H]2O[C@H](SC)[C@H](O)[C@@H](O)[C@H]2O)[C@@H](C)O)N(C)C1` [(2S,4R)-N-((1R,2R)-2-hydroxy-1-((2R,3R,4S,5R,6R)-3,4,5-trihydroxy-6-(methylthio)-tetrahydro-2H-pyran-2-yl)propyl)-1-methyl-4-propylpyrrolidine-2-carboxamide], the affinity corresponds to a Ki of 18.3 mM.

On to `CCC[C@@H]1C[C@@H](C(=O)N[C@@H]([C@H]2O[C@H](SC)[C@H](OP(=O)(O)O)[C@@H](O)[C@H]2O)[C@H](C)Cl)N(C)C1` [Clindamycin phosphate], for which the inhibition constant Ki amounted to 35.8 mM.

Take `CCN[C@@H]1C[C@H](N)[C@H](O[C@H]2OC(CN)=CC[C@H]2N)[C@H](O)[C@H]1O[C@H]1OC[C@](C)(O)[C@H](NC)[C@H]1O` [Netilmycin sulfate]: the affinity corresponds to a Ki of 3.73 mM.

In turn, `CN(C)[C@@H]1C(=O)C(C(N)=O)=C(O)[C@@]2(O)C(=O)C3=C(O)c4c(O)cccc4[C@@](C)(O)[C@H]3[C@H](O)[C@@H]12` [Oxytetracycline hydrochloride] yielded an inhibitory constant (Ki) of 0.2 mM.

Take `CN[C@H]1[C@@H](O[C@@H]2[C@@H](O[C@H]3[C@H](O)[C@@H](O)[C@H](N=C(N)N)[C@@H](O)[C@@H]3N=C(N)N)O[C@H](C)[C@@]2(O)C=O)O[C@H](CO)[C@@H](O)[C@@H]1O` [Streptomycin sulfate]: the inhibition constant Ki is 56.3 mM.
